Measurements: US6849649B2, “N-phenpropylcyclopentyl-substituted glutaramide derivatives as inhibitors of neutral endopeptidase” (Pfizer Inc., priority 2001, dated 2005)
Counter-ions that a name gives are not always drawn. Like-named read-outs stand apart in the source and are kept apart here.

What was measured:
[1] = target: T1, NEP from canine kidney (Canis lupus familiaris, UniProt A0A8I3PBM8); test: IC50 against NEP (canine kidney); type: biochemical
T1 construct: determined using NEP from canine kidney; from tissue; host or cells: canine kidney
T1 sequence (A0A8I3PBM8 1-749): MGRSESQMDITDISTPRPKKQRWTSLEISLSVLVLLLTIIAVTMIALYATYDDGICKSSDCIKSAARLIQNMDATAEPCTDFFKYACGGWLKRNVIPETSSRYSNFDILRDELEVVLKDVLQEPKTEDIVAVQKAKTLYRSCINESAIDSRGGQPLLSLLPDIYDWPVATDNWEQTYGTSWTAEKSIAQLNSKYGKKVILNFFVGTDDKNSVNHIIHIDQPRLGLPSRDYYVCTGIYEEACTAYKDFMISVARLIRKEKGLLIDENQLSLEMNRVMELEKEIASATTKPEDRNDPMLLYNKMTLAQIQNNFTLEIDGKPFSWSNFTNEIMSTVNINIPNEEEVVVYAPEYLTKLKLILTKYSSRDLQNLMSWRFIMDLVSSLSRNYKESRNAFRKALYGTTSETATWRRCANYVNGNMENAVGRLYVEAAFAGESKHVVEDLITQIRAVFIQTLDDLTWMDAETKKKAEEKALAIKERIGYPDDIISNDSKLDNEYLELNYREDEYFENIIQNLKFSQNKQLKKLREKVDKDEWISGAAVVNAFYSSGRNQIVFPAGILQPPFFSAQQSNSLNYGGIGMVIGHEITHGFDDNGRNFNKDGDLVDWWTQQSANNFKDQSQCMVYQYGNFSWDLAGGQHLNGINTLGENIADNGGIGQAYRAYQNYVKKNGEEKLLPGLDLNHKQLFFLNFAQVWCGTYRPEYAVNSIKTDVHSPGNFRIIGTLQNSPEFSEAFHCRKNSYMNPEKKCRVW
Method: The IC50 values presented below were determined using NEP from canine kidney.

[2] = NEP from canine kidney, read-out: IC50 against NEP

SMILES | melting point | IC50 [1, 2] | IC50 [1]
O=C(O)CCC1(C(=O)NCCCc2ccc3c(c2)CCO3)CCCC1 [Example 21] | 94.5 to 97 °C | 3 nM | –
COCC[C@H](CC1(C(=O)NCCCc2ccc3c(c2)OCCO3)CCCC1)C(=O)O [Example 43] | – | 29 nM | –
O=C(O)CCC1(C(=O)NCCCc2cccc3ccccc23)CCCC1 [Example 33] | – | 47 nM | –
COCCC(CC1(C(=O)NCCCc2ccc(F)cc2)CCCC1)C(=O)O (centres unmarked) [Example 4, 2-{[1-({[3-(4-fluorophenyl)propyl]amino}carbonyl)cyclopentyl]methyl}-4-methoxybutanoic acid] | – | – | 4 nM
CC(CCNC(=O)C1(CCC(=O)O)CCCC1)c1ccc2c(c1)CCO2 (centres unmarked) [Example 51] | – | 9 nM | –
COCCC(CC1(C(=O)NCCCc2ccc(OC)cc2)CCCC1)C(=O)O (centres unmarked) (as salt: sodium) [Example 1, 4-Methoxy-2-{[1-({[3-(4-methoxyphenyl)propyl]amino}carbonyl)cyclopentyl]-methyl}butanoic acid] | 214 to 216 °C | – | –
COCCC(CC1(C(=O)NC(C)COc2ccccc2Cl)CCCC1)C(=O)O (centres unmarked) [Example 3] | – | 22 nM | –
